One test relates to HT1080 8 #cells. The test can be described thus: Cell competitive binding assay against ^177Lu-radiolabeled FAPi-46. Here is the method: (1) HT1080 8 #cells in the logarithmic growth phase were prepared into a cell suspension, and the cell density was adjusted to 1×10^4/mL. 1 mL of the suspension was seeded into a 24-well cell culture plate. The plate was incubated overnight in a 37° C. incubator.
(2) The cell culture medium was aspirated, and the cells were washed once with PBS, followed by the addition of 975 μL of additive-free medium.
(3) To each well, 25 µL of ^177Lu-radiolabeled FAPi-46 (Nanchang Tanzhen Biotechnology Co., Ltd., CAS: 2374782-04-2) at a fixed concentration (final concentration in culture medium: 1.35 μCi/mL) and varying concentrations (final concentrations in culture medium: 1000 ng/mL, 100 ng/ml, 10 ng/ml, 1 ng/mL, 0.1 ng/ml, 0.01 ng/mL, 0.001 ng/mL, 0 ng/ml) of unlabeled test compounds JHH8, JHDB8, and JHH9 were added.
(4) The mixture was incubated on ice for 2 hours.
(5) The cells were washed three times with ice-cold PBS.
(6) The cells were lysed with 0.5 mL of 1 M sodium hydroxide, washed twice with 0.5 mL of PBS, and the sodium hydroxide solution (0.5 mL) and PBS solutions (0.5 mL×2) were collected for uptake counting.
The control compound was OncoFAP-DOTAGA (structural formula: […]
The cell competitive binding of compounds JHH5, JHH4, JHH10, JHH8, H4b, H5b, and H8b was tested in the same batch using the above method, and the experimental results are shown in Table 3 and FIG. 3.

The target of a further test is T1, FAP protein (Homo sapiens, UniProt Q12884).
T1 construct: purchased Sinobiological
T1 sequence (Q12884 1-760): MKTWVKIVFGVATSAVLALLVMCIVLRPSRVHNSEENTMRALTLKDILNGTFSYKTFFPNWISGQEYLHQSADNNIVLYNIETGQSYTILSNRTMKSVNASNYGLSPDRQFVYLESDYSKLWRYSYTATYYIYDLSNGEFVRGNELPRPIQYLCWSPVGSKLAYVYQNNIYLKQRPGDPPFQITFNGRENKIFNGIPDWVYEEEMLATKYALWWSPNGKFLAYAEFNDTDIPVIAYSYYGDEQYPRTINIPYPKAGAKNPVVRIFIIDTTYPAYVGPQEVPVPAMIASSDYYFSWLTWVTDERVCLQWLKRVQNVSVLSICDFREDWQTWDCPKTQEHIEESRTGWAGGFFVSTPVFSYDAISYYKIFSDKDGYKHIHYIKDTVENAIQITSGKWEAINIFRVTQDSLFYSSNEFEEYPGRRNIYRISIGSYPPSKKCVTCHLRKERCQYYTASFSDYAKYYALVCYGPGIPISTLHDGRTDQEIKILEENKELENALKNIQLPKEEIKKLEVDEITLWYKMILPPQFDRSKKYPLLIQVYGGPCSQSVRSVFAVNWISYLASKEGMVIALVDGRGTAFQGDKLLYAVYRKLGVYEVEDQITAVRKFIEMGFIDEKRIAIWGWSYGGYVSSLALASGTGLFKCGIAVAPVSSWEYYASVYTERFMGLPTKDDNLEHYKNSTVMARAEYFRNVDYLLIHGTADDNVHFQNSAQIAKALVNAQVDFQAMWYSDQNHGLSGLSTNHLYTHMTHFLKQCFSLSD
As to the kind of experiment: Biacore test of ligand binding to FAP protein. The settings on record: FAP protein on SA chip, 15° C., 1:1 binding model. The method, then:
The Biacore 8K (Cytiva) instrument was used to detect ligand binding of the FAP protein (Sinobiological). The FAP protein was captured on the SA chip. Before ligand immobilization (flow paths 1 and 2, flow rate of 10 μL/min), the FAP protein (10 μg/mL, flow rate of 5 μL/min, injection time of 600 s) was immobilized on flow path 2 using running buffer, and the sensor surface was conditioned with three consecutive injections of 1 M NaCl in 50 mM NaOH. After each ligand injection, additional washing was carried out with isopropanol in 1 M NaCl and 50 mM NaOH (flow paths 1 and 2, flow rate of 10 μL/min, injection time of 60 s).
The test compounds were dissolved in 100% dimethyl sulfoxide and diluted to 10 mM, then further diluted in the assay buffer (PBS, pH 7.4, 1 mM TCEP ([…]), 0.05% P20, 2% dimethyl sulfoxide) to appropriate maximum concentrations. The analyte was run under the following conditions: analysis temperature=15° C., analysis step=all set to LMW kinetics; cycle type=single cycle (90 s contact time, 1800 s dissociation time, 30 μL/min flow rate, flow channels 1, 2); flow channel detection=2-1). Data evaluation was performed using Biacore Insight Evaluation Software, and the data were fitted to a 1:1 binding model.
The Biacore results are shown in Table 1: pKD=−Log KD, where KD is the binding affinity of the compound to the FAP protein as measured by Biacore. The binding affinity is expressed by KD (M)=Kd(1/s)/Ka(1/Ms). Where A: pKD>8, B: 7<pKD<8, C: 6<pKD<7, D: pKD<6.
A general note: SPR reads the build-up and loss of mass on a sensor chip optically.

Test [1] has as its system HT1080 cell line with high FAP expression. As to the kind of experiment: Therapeutic experiment of ^177Lu-labeled compounds in tumor-bearing mice. Format: in vivo, Balb/c Nude mice. To be noted: ^177Lu-labeled compound. The method, then:
Balb/c Nude tumor-bearing mice (supplier: Shanghai Alamo Pharmaceutical Technology Co., Ltd., HT1080 cell line with high FAP expression) aged approximately 6-8 weeks were randomly assigned to 13 experimental groups based on tumor volume, with 5 mice per group. Animal body weight and tumor size were measured, and administration was initiated on the grouping day starting with Group 1 (control group: normal saline). General health and appearance were observed daily after the start of the experiment. Animal body weight and tumor size were measured before each sample collection time point. Any abnormal observations detected during the entire study period were required to be recorded in the raw data.
The synthesized compounds were labeled with ^177Lu and subsequently utilized in the therapeutic assay on mouse tumor models. […] Furthermore, no significant changes in mouse body weight (FIG. 8) were observed throughout the experimental period.
• TGI^TV: Relative tumor inhibition rate (TGI^TV): TGI^TV (%)=[1−(Ti−T0)/(Vi−V0)]×100%; • (Ti: average tumor volume of the treatment group on day i of administration, TO: average tumor volume of the treatment group on day 0 of administration; Vi: average tumor volume of the solvent control group on day i of administration, V0: average tumor volume of the solvent control group on day 0 of administration) • T/C: T/C % is one of the most commonly used indicators for tumor response to treatment: T/C %=T/C*100%; • (T represents the average tumor volume of the treatment group at a specific time point; C represents the average tumor volume of the control group at a specific time point.)
The differences between the treatment groups (tumor volumes of the second, third, fourth, and fifth groups) and the control group (tumor volume of the first group) and between the tumor volumes of the first, third, fourth, and fifth groups and the tumor volume of the second group were analyzed using the two-way ANOVA Fisher's LSD test method. P-values less than 0.05 were considered statistically significant. Both statistical significance and biological significance were taken into account during the result analysis.

Where [2] appears, read: EC50 (ng/mL) converted with molecular weight, read-out: EC50.
The mark [3] stands for this setting: competition with ^177Lu-FAPi-46, on ice 2 hours.

Like-named read-outs stand apart in the source and are kept apart here. Some results are limits rather than exact numbers.

What is called EC50 is the concentration at which the effect is half-maximal. As usually defined, the Kd is the free concentration of one partner at which half of the binding sites on the other are occupied at equilibrium, for simple one-to-one binding. Read a low Kd as tighter binding.

`N#C[C@@H]1CC(F)(F)CN1C(=O)CNC(=O)c1cccc2c1CNCC2` [Compound H4b]: the EC50 amounted to 34.2 nM in the test with HT1080 8 #cells (setting [2]) and 11.89 ng/mL in the test on HT1080 8 #cells (setting [3]).

In the case of `N#C[C@@H]1CC(F)(F)CN1C(=O)CNC(=O)c1cccc2c1CCNC2` [Compound H5b], the figures for the EC50 in the test with HT1080 8 #cells (setting [2]) and in the test with HT1080 8 #cells (setting [3]) were 452 nM and 157.5 ng/mL, respectively.

Regarding `N#C[C@@H]1CC(F)(F)CN1C(=O)CNC(=O)c1ccc2c(c1)CCCN2` [Compound H8b], the concentration for a half-maximal effect (EC50) with HT1080 8 #cells (setting [2]) amounted to 9.24 nM; in the test on HT1080 8 #cells (setting [3]) it was 3.219 ng/mL.

The compound `O=C(O)CN1CCN(CC(=O)O)CCN(CC(=O)NCc2ccc(C(=O)N[C@H](CO)C(=O)N3CCC[C@H]3B(O)O)cc2)CCN(CC(=O)O)CC1` [JHB1] had an equilibrium dissociation constant (Kd) at FAP protein of 10 to 100 nM.

As to `C[C@@H](NC(=O)c1ccc(CNC(=O)CCC(=O)NCCCC[C@H](NC(=O)CCC(=O)NCc2ccc(C(=O)N[C@H](C)C(=O)N3CCC[C@H]3B(O)O)cc2)C(=O)NCCOCCNC(=O)CN2CCN(CC(=O)O)CCN(CC(=O)O)CCN(CC(=O)O)CC2)cc1)C(=O)N1CCC[C@H]1B(O)O` [JHDB2], the equilibrium dissociation constant (Kd) on FAP protein was 100 to 1000 nM.

On to `N#C[C@@H]1CC(F)(F)CN1C(=O)CNC(=O)c1ccc2c(c1)CCN(C(=O)CCC(=O)NCC(=O)N1CN(C(=O)CNC(=O)CCC(=O)N3CCc4cc(C(=O)NCC(=O)N5CC(F)(F)C[C@H]5C#N)ccc4C3)CN(C(=O)CNC(=O)CN3CCN(CC(=O)O)CCN(CC(=O)O)CCN(CC(=O)O)CC3)C1)C2` [JHDB6], for which the Kd on FAP protein is under 10 nM.

`N#C[C@@H]1CC(F)(F)CN1C(=O)CNC(=O)c1cccc(C2CCN(C(=O)CCC(=O)NCC(=O)N3CN(C(=O)CNC(=O)CCC(=O)N4CCC(c5cccc(C(=O)NCC(=O)N6CC(F)(F)C[C@H]6C#N)c5)CC4)CN(C(=O)CNC(=O)CN4CCN(CC(=O)O)CCN(CC(=O)O)CCN(CC(=O)O)CC4)C3)CC2)c1` [JHDB7] gave a Kd on FAP protein of 10 to 100 nM.

In the case of `N#C[C@@H]1CC(F)(F)CN1C(=O)CNC(=O)c1cnc2c(c1)CCN(C(=O)CCC(=O)NCCNC(=O)CCC(C(=O)O)N1CCN(CC(=O)O)CCN(CC(=O)O)CCN(CC(=O)O)CC1)C2` (stereo partly drawn) [JHH1, 2,2′,2″-(10-(1-carboxy-4-((2-(4-(3-((2-((S)-2-cyano-4,4-difluoropyrrolidin-1-yl)-2-oxoethyl)carbamoyl)-5,8-dihydro-1,7-naphthyridin-7 (6H)-yl)-4-oxobutanamido)ethyl)amino)-4-oxobutyl)-1,4,7,10-tetraazacyclododecane-1,4,7-triyl)triacetic acid], the Kd on FAP protein is 10 to 100 nM. The “therapeutic effects in mouse tumor model” value in test [1] is “dose-dependent therapeutic effects”.

`N#C[C@@H]1CC(F)(F)CN1C(=O)CNC(=O)c1ccc2c(n1)CCN(C(=O)CCC(=O)NCCNC(=O)CCC(C(=O)O)N1CCN(CC(=O)O)CCN(CC(=O)O)CCN(CC(=O)O)CC1)C2` (stereo partly drawn) [JHH2]: the Kd at FAP protein was 10 to 100 nM.

With `N#C[C@@H]1CC(F)(F)CN1C(=O)CNC(=O)c1cc2c(s1)CCN(C(=O)CCC(=O)NCCNC(=O)CCC(C(=O)O)N1CCN(CC(=O)O)CCN(CC(=O)O)CCN(CC(=O)O)CC1)C2` (stereo partly drawn) [JHH3], the Kd on FAP protein was under 10 nM.

For `N#C[C@@H]1CC(F)(F)CN1C(=O)CNC(=O)c1cccc2c1CN(C(=O)CCC(=O)NCCNC(=O)CCC(C(=O)O)N1CCN(CC(=O)O)CCN(CC(=O)O)CCN(CC(=O)O)CC1)CC2` (stereo partly drawn) [JHH4], the EC50 with HT1080 8 #cells (setting [2]) came out at 1.3 nM; with HT1080 8 #cells (setting [3]), 1.231 ng/mL.

Take `N#C[C@@H]1CC(F)(F)CC1C(=O)CNC(=O)c1ccc2c(c1)CCN(C(=O)CCC(=O)NCCNC(=O)CCC(C(=O)O)N1CCN(CC(=O)O)CCN(CC(=O)O)CCN(CC(=O)O)CC1)C2` (stereo partly drawn) [JHH6]: the Kd on FAP protein is 100 to 1000 nM.

`C[C@@H]1CC(F)(F)CN1C(=O)CNC(=O)c1ccc2c(c1)CN(C(=O)CCC(=O)NCCNC(=O)CCC(C(=O)O)N1CCN(CC(=O)O)CCN(CC(=O)O)CCN(CC(=O)O)CC1)C2` (stereo partly drawn) [JHH7] had a Kd at FAP protein of under 10 nM.

At FAP protein, `N#C[C@@H]1CC(F)(F)CN1C(=O)CNC(=O)c1cccc(C2CCN(C(=O)CCC(=O)NCCNC(=O)CCC(C(=O)O)N3CCN(CC(=O)O)CCN(CC(=O)O)CCN(CC(=O)O)CC3)CC2)c1` (stereo partly drawn) [JHH9] had a Kd of under 10 nM. In addition, the “therapeutic effects in mouse tumor model” value in test [1] is given as “dose-dependent therapeutic effects”.

In turn, `N#C[C@@H]1CC(F)(F)CN1C(=O)CNC(=O)c1cc2c(s1)CCN(C(=O)CCC(=O)NCCNC(=O)CCNC(=O)CN1CCN(CC(=O)O)CCN(CC(=O)O)CCN(CC(=O)O)CC1)C2` [JHH11] had a Kd on FAP protein of under 10 nM.

Take `N#C[C@@H]1CC(F)(F)CN1C(=O)CNC(=O)c1ccc2c(c1)CCN(C(=O)CCC(=O)NCCNC(=O)CCNC(=O)CN1CCN(CC(=O)O)CCN(CC(=O)O)CCN(CC(=O)O)CC1)C2` [JHH12]: the Kd at FAP protein is under 10 nM.

In turn, `N#C[C@@H]1CC(F)(F)CN1C(=O)CNC(=O)c1ccc2c(c1)CCCN2C(=O)CCC(=O)NCCNC(=O)CCNC(=O)CN1CCN(CC(=O)O)CCN(CC(=O)O)CCN(CC(=O)O)CC1` [JHH13] gave a Kd at FAP protein of 10 to 100 nM.

`C[C@@H](NC(=O)c1cnc2c(c1)CCN(C(=O)CCC(=O)NCCNC(=O)CCC(C(=O)O)N1CCN(CC(=O)O)CCN(CC(=O)O)CCN(CC(=O)O)CC1)C2)C(=O)N1CC(F)(F)C[C@H]1C#N` (stereo partly drawn) [JHM1, 2,2′,2″-(10-(1-carboxy-4-((2-(4-(3-(((R)-1-((S)-2-cyano-4,4-difluoropyrrolidin-1-yl)-1-oxopropan-2-yl)carbamoyl)-5,8-dihydro-1,7-naphthyridin-7 (6H)-yl)-4-oxobutanamido)ethyl)amino)-4-oxobutyl)-1,4,7,10-tetraazacyclododecane-1,4,7-triyl)triacetic acid] showed a Kd on FAP protein of 100 to 1000 nM.

The record behind these values is US20260226049A1, “NITROGEN-CONTAINING HETEROCYCLIC COMPOUND, PREPARATION METHOD THEREFOR, AND USE THEREOF” (BIVISION PHARMACEUTICALS, INC, priority 2023, published 2026).
